Several values for one entry are separate records, joined by “and”; a condition that tells them apart may be missing. Equal values may be shown once.
Columns and labels:
[1] = DPPH radical scavenging assay; assay type: biochemical; settings: for Radical Scavenging Activity (%): compared to standard ascorbic acid (100%); for Final time of reaction: time to steady state
Protocol: The DPPH assay is based on the change in absorbance at 515 nm, upon reduction of the DPPH radical, by an antioxidant. The antioxidant activity of a putative antioxidant is measured by monitoring the decrease in absorbance when the colour of the solution fades. In this assay, the reaction between the test antioxidant and DPPH radical is allowed to continue until it reaches a steady state. The amount of the radical quenched when steady state is reached is dependent on the antioxidant capacity and the concentration of the antioxidant. 100 μl (1 mg/3 ml) of the respective sample was added to 3.9 ml DPPH solution (25 mg/L in methanol). The decrease in absorbance at 515 nm was monitored using a Unicam UV-visible spectrophotometer, until the reaction reached steady state.

[2] = system: Bax; assay: Western blot of Bax expression in UVA-irradiated HaCaTs; assay type: cell-based, human; settings: for % Bax Expression: relative to control (100%)
Excerpt: (§1) Apoptosis can take place through the extrinsic pathway or the intrinsic pathway. The extrinsic pathway involves transmembrane receptor-mediated interactions which involve members of the tumour necrosis factor (TNF). The intrinsic pathway is a mitochondrial-initiated event and thus is of interest for this study. The intrinsic pathway can progress in a caspase-dependent or independent way. The caspase-independent route involves a protein called AIF which when released from the mitochondria, translocates directly to the nucleus and induces apoptosis. The alternative caspase-dependent route involves members of the Bcl-2 family of proteins. This family of proteins is responsible for regulating the permeability of the mitochondrial membrane and can be either pro-apoptotic or anti-apoptotic; Bcl-2 is anti-apoptotic while Bax is pro-apoptotic. The cells' sensitivity to apoptotic stimuli depends on the balance of pro-apoptotic (Bax) and anti-apoptotic (Bcl-2) proteins. […] An excess of Bax results in the cells being more susceptible to apoptosis, and an excess of Bcl-2 renders the cells more resistant to apoptosis. To determine the nature of the anti-apoptotic effect mediated by Polymer Compound 57 and hydroxytyrosol due to UVA irradiation, the Bax/Bcl-2 ratio was studied using Western blot analysis. To evaluate the expression of Bcl-2, Bax and AIF, the cells were cultured and treated with varying concentrations between 200 and 1000 μM of Polymer Compound 57 and hydroxytyrosol for 18 hrs, and then irradiated at 22.3 J/cm^2. Protein extraction was conducted and proteins were quantified using the BCA method. […] The purpose of this control is to ensure that it is only the UVA rays that result in the observed effects, and not the heat in the chamber. Alpha tubilin was used as a loading control in each experiment to ensure that the results were quantified correctly. Since the Western blot results are quantified by band size, it is important to ensure that each sample has the same amount of protein when loaded and the loading control helps to determine this. The band obtained when the proteins are probed with the loading control represent the amount of protein in that loaded sample.

[3] = system: Bcl-2; assay: Western blot of Bcl-2 expression in UVA-irradiated HaCaTs; assay type: cell-based, human; settings: for % Bcl-2 Expression: relative to control (100%)
Excerpt: as §1

[4] = system: AIF; assay: Western blot of AIF expression in UVA-irradiated HaCaTs; assay type: cell-based, human; settings: for % AIF Expression: relative to control (100%)
Excerpt: as §1

[5] = FRAP assay (iron (III) reduction ability); assay type: biochemical; settings: 1 ml (1 mg/3 ml) sample
Protocol: The FRAP assay measures the ability of an antioxidant to reduce a ferroin analog, the Fe complex of tripyridyltriazine, Fe (TPTZ)^3+, to the intensely blue coloured Fe^2+ in an acidic medium. Results are obtained as absorbance increases at 593 nm and can be expressed relative to an antioxidant standard, ascorbic acid in this case.
1 ml (1 mg/3 ml) of the respective sample was added to 2.5 ml of potassium phosphate buffer (pH 7, 500 mM) 2.5 ml potassium ferricyanide was added. This was followed by incubation at 50° C. for 20 min. 10% (v/v) trichloracetic acid was added to stop the reaction. 2.5 ml of water was then added to 2.5 ml of the reaction. Iron chloride (0.5 ml) was added. The reaction was allowed to stand for 30 min after which the absorbance was read at 700 nm.

[6] = system: low density lipoprotein (LDL); assay: LDL oxidation assay (conjugated diene formation); assay type: biochemical; settings: 50 μM test antioxidant; LDL oxidized with 5 μM CuCl2; relative to ascorbic acid
Protocol: Oxidation of low density lipoprotein (LDL) was performed according to the method developed by Nardini et al (1995). LDL was dialyzed in a 200 fold volume of PBS of pH 7 in the dark for 18 hrs. 100 μg/ml LDL, determined with the Bradford method, was oxidized with 5 μM CuCl2 for 4 hrs at 37° C. in the presence and absence of 50 μM test antioxidant. Conjugated diene formation was measured spectroscopically at 234 nm using a Unicam UV-visible spectrophotometer.
The antioxidant ability of Polymer Compound 57 to inhibit LDL oxidation was assessed by adding it to a reaction mixture containing LDL previously treated with copper to initiate the oxidation. The antioxidant ability of the compound was measured based on the increase in absorbance due to diene conjugation at 234 nm.

[7] = system: HaCaTs; assay: XTT cell viability assay in HaCaTs; assay type: cell-based, human
Protocol: To evaluate the toxicity of Polymer Compound 57 an XTT assay was conducted. The assay is based on the ability of viable cells to reduce yellow XTT tetrazolium salts to an orange formazan which is then measured at an absorbance of 450 nm. The HaCaTs were incubated overnight with increasing concentrations of Polymer Compound 57. Cell viability was then evaluated by adding the XTT solution, incubating for 4 hrs at 37° C., and then reading the absorbance at 450 nm.
To further explore the effect of the antioxidants a dose and time response study was carried out to determine the long term effect of Polymer Compound 57.

[8] = system: UVA-induced H2O2 production in keratinocytes; assay: ROS assay (DHR 123, FACS) in UVA-irradiated keratinocytes; assay type: cell-based, human
Excerpt: UVA irradiation of cultured human skin cells results in over-elevated levels of H2O2 and other ROS (reactive oxygen species), with H2O2 being the predominant species. Dihydrorhodamine (DHR 123) can be used to detect H2O2 produced following irradiating the cells with UVA. […] The mean fluorescence (MF), read on a fluorescent activated cell sorter (FACS) machine thus indicates intracellular H2O2 production. To elucidate the effect that Polymer Compound 57 would have on the over-expression of ROS due to irradiation, H2O2 production in keratinocytes was measured. The cells were first treated with the various concentrations of the Polymer Compound 57, irradiated with UVA and then exposed to the dye DHR 123.

In the case of O=C1O[C@H]([C@@H](O)CO)C(O)=C1O [Ascorbic acid, reference compound], the “Radical Scavenging Activity (%)” value ([1]; 0.002M sample) is reported as 100% and the “Final time of reaction” value ([1]; 0.002M sample) is reported as 4 min.
For OCCc1ccc(O)c(O)c1 [Hydroxytyrosol], the “% Bax Expression” value ([2]; 200 μM) was 128%, the “% Bax Expression” value ([2]; 333 μM) was 116% and the “% Bax Expression” value ([2]; 1000 μM) was 100%. For the same compound, the “% Bcl-2 Expression” value ([3]; 200 μM) was 83%, the “% Bcl-2 Expression” value ([3]; 333 μM) was 90% and the “increase in Bcl-2 levels of expression relative to the control” value ([3]; 1000 μM) was 7%. The “% Bcl-2 Expression” value ([3]; 1000 μM) was 110%, the “% AIF Expression” value ([4]; 200 μM) was 91% and the “% AIF Expression” value ([4]; 333 μM) was 82%. The “reduction of AIF levels relative to the control” value ([4]; 1000 μM) was 15% and the “% AIF Expression” value ([4]; 1000 μM) was 42%.
For OCCc1cc(O)c(O)c(-c2cc(CCO)cc(O)c2O)c1 [Polymer Compound 57], the “Radical Scavenging Activity (%)” value ([1]; 0.0004M sample) was 86.7%, the “Final time of reaction” value ([1]; 0.0004M sample) was 7 min and the “antioxidant activity equivalent of ascorbic acid” value [5] was 363 mg/L. The “effect on absorbance at 234 nm due to diene conjugation” value [6] was “absorbance-decreasing effect”, the “long term toxicity to HaCaTs” value ([7]; 3 day period, concentrations non-toxic over 24 hr) was “non-toxic” and the “concentrations resulting in marked decreases in cell viability” value ([7]; HaCaTs, overnight incubation) was “higher than 500 μM”. The “concentrations with no negative effect on cell viability” value ([7]; HaCaTs, overnight incubation) was 200 to 500 µM, the “mean fluorescence (ROS level) relative to control of 100%” value ([8]; 200 μM) was 87-100% and the “mean fluorescence (ROS level) relative to control of 100%” value ([8]; 333 μM) was 85%. For the same compound, the “reduction of Bax levels relative to the control” value ([2]; 200 μM) was 75% and 70%, the “% Bax Expression” value ([2]; 200 μM) was 31% and the “reduction of Bax levels relative to the control” value ([2]; 333 μM) was 87.5%. For the same compound, the “% Bax Expression” value ([2]; 333 μM) was 17%, the “reduction of Bax levels relative to the control” value ([2]; 500 μM) was 87.5% and the “% Bax Expression” value ([2]; 1000 μM) was 14%. The “decrease of Bax levels relative to the control (100%)” value ([2]; "lowest concentration" as printed) was 85%, the “% Bcl-2 Expression” value ([3]; 200 μM) was 50% and the “% Bcl-2 Expression” value ([3]; 333 μM) was 84%. The “increase in Bcl-2 levels of expression relative to the control” value ([3]; 500 μM) was 16%, the “% Bcl-2 Expression” value ([3]; 1000 μM) was 118% and the “AIF levels reduced to, relative to the control” value ([4]; 200 μM) was 28%. For the same compound, the “% AIF Expression” value ([4]; 200 μM) was 78%, the “AIF levels reduced to, relative to the control” value ([4]; 333 μM) was 32% and the “% AIF Expression” value ([4]; 333 μM) was 74%. For the same compound, the “AIF levels reduced to, relative to the control” value ([4]; 500 μM) was 32% and the “% AIF Expression” value ([4]; 1000 μM) was 38%.

Reference: patent publication US8663608B2, “Hydroxytyrosol compounds” (University of Cape Town, priority 2009, dated 2014)
